Test results reported in US20030176381A1, “Hyaluronic acid in the treatment of cancer” (priority 2002, published 2003).
One block for each compound: values may come before it.

Experiments:
PC3 tumors [1] = test: Example 14: HA, CIS, 5-FU on PC3 tumors in mice; type: in vivo, male nude BALB/c mice; settings: vs Group 1 (saline); intravenously day 0 and at 3 day intervals for 4 weeks; HA 0.16-16.0 mg/kg, CIS or 5-FU 0.1-10.0 mg/kg
Method: PC-3 cancer cells are implanted subcutaneously into 224 male nude BALB/c mice. The mice are divided into 28 groups of 8 mice (Table 14).
(§1) Saline, HA, CIS, 5-FU, HA+CIS and HA+5FU are administered intravenously in saline on day 0 and at 3 day intervals for 4 weeks (10 injections) at which time the mice are sacrificed and tumor mass and number of metastases are determined.

B16F1 tumors [2] = test: Example 16: HA, CIS, 5-FU on B16F1 tumors in mice; type: in vivo, female C57BL/6 mice; settings: vs Group 1 (saline); intravenously day 0 and at 3 day intervals for 4 weeks; HA 0.16-16.0 mg/kg, CIS 0.01-1.0 mg/kg or 5-FU 1.0-100.0 mg/kg
Method: Effect of saline, HA, CIS, 5-FU, HA+CIS and HA+5-FU on B16F1 tumors in mice 5 B16F1 cancer cells are implanted subcutaneously into 224 female C57BL/6 mice. The mice are divided into 28 groups of 8 mice (Table 16).
as §1

[3] = tested on: RT-4 human bladder cancer cells; test: MTT cell proliferation, RT-4; type: cell-based
Method: Cell proliferation was measured using dimethylthiazoldiphenyltetrazolium (MTT) reduction (Mosman et al. J. Immunol. Methods 65:55, 1983). Unless otherwise stated, 100 Al of 5 mg of MTT (Sigma-Aldrich, St. Louis, Mo., USA) dissolved in 1 ml of PBS was added into each well. After 4 h, medium was removed from each well, 1.0 ml of acid-isopropanol (0.04 N HCI in isopropanol) was added and reduced MTT was solubilized by mixing. Absorbency of the reaction product was measured at a wavelength of 570 nm using a multiplate spectrophotometer reader (Elx800 Model, Bio-TEK Instruments Inc., Winooski, Vt., USA). […] PC-3, LNCAP and Du-145 human prostate cancer cells; MCF-7 human breast cancer cells; HT-1080 human fibrosarcoma cancer cells; B16F1 murine melanoma cells; and, UMUC-3, RT-4, HT-1376 and T-24 human bladder cancer cells were incubated with 0.8, 8.0 and 80 μg/ml of 5.0-7.5 x 10^5 Da HA (Table 2). […] MTT was used at 50 μl per well. HT-1376, RT-4 and T-24 human bladder cancer cells were incubated with 0.8 pg/ml of 5.0-7.5 x 10^5 Da HA +1.0 ug/ml of MCC (Table 5). […] MCF-7 human breast cancer cells; RT-4, T-24, HT-1376 and UMUC-3 human bladder cancer cells; and, PC-3, Du-145 and LNCaP prostate cancer cells (Table 8)

LNCaP tumors (CD44 null) [4] = test: Example 15: HA, CIS, 5-FU on LNCaP tumors in mice; type: in vivo, male nude BALB/c mice; settings: vs Group 1 (saline); intravenously day 0 and at 3 day intervals for 4 weeks; HA 0.16-16.0 mg/kg, CIS or 5-FU 0.1-10.0 mg/kg
Method: Effect of saline, HA, CIS, 5-FU, HA+CIS andHA+5-FU on LNCaP tumors in mice LNCaP cancer cells (CD44 null) are implanted subcutaneously into 224 male nude BALB/c mice. The mice are divided into 28 groups of 8 mice (Tablel5).
Saline, HA, CIS, 5-FU, HA+CIS and HA+5FU are administered intravenously in saline on day 0 and at 3 day intervals-for 4 weeks-(1IOinjections) at which time the mice are sacrificed and tumor mass and number of metastasis are determined.

[5] = tested on: MCF-7 human breast cancer cells; test: MTT cell proliferation, MCF-7; type: cell-based; settings: Homo sapiens, MCF7, 5-FU at 10 μg/ml alone (saline instead of HA)
Method: (§2) Cell proliferation was measured using dimethylthiazoldiphenyltetrazolium (MTT) reduction (Mosman et al. J. Immunol. Methods 65:55, 1983). Unless otherwise stated, 100 Al of 5 mg of MTT (Sigma-Aldrich, St. Louis, Mo., USA) dissolved in 1 ml of PBS was added into each well. After 4 h, medium was removed from each well, 1.0 ml of acid-isopropanol (0.04 N HCI in isopropanol) was added and reduced MTT was solubilized by mixing. Absorbency of the reaction product was measured at a wavelength of 570 nm using a multiplate spectrophotometer reader (Elx800 Model, Bio-TEK Instruments Inc., Winooski, Vt., USA).
(§3) Unless stated otherwise 1.0 x 10^5 cells/ml were seeded in 6-well flat-bottom tissue culture plates and were maintained for 48 h at 370 C in a 5% CO2 atmosphere.
(§4) PC-3, LNCAP and Du-145 human prostate cancer cells; MCF-7 human breast cancer cells; HT-1080 human fibrosarcoma cancer cells; B16F1 murine melanoma cells; and, UMUC-3, RT-4, HT-1376 and T-24 human bladder cancer cells were incubated with 0.8, 8.0 and 80 μg/ml of 5.0-7.5 x 10^5 Da HA (Table 2).
(§5) Unless stated otherwise 2.0 x 10^4 cells/ml were seeded in 24-well plates and were maintained for 48 h at 370 C in a 5% CO2 atmosphere. MTT was used at 50 μl per well.
(§6) T-24 human bladder cancer cells, PC-3 and Du-145 human prostate cancer cells, and MCF-7 human breast cancer cell were incubated with saline or with 80.0 jg/ml of 5.0-7.5 x 105 Da HA +1.0 μg/ml of M-DNA (Table 4).
MTT was used at 50 µl per well.
Example 8 s HA potentiation of the anti-neoplastic effect ofchemotherapeutic drugs RT-4 human bladder cancer cells and MCF-7 human breast cancer cells were incubated as in Example 6 with 0.0, 0.008 or 0.08 pg/ml of 5.0-7.5 x 10^5 Da HA +0.1 jg/ml of CIS, +1.0 jg/ml of 5-FU or +10 jig/ml of 5-FU (Table 7).
(§7) CD44 expression and the inhibition of proliferation by 5.0-7.5 x 10^5 Da HA were measured using Jurkat T cell leukemia cells; MCF-7 human breast cancer cells; RT-4, T-24, HT-1376 and UMUC-3 human bladder cancer cells; and, PC-3, Du-145 and LNCaP prostate cancer cells (Table 8)

[6] = tested on: MCF-7 human breast cancer cells; test: MTT cell proliferation, MCF-7; type: cell-based; settings: MCF-7 (2.5 X 10^5 cells/ml); oligonucleotide 100 μg/ml alone (HA 0.0 μg/ml)
[7] = tested on: LNCaP human prostate cancer cells; test: MTT cell proliferation, LNCaP; type: cell-based; settings: 48 h
Method: as §2, §3, §4
(§8) PC-3. LNCaP and Du-145 human prostate cancer cells were incubated with 8.0 jg/ml of 5.0-7.5 x 105 Da HA or of <1.5 x 10^4 Da HA (Table 3).
as §7

[8] = tested on: Du-145 human prostate cancer cells; test: MTT cell proliferation, Du-145; type: cell-based; settings: HA 8.0 μg/ml, 48 h
Method: as §2, §3, §4, §8, §5, §6, §7

[9] = tested on: PC-3 human prostate cancer cells; test: MTT cell proliferation, PC-3; type: cell-based; settings: 48 h
Method: as §2, §3, §4, §8, §5, §6, §7

colon-26 cancer cells = settings: HA alone; colon-26 cells express high levels of HA receptors; cited from earlier work
[10] = tested on: rectal, gastric, breast, prostate and endometrial cancers; settings: HA >750 mg/kg administered with various other therapeutic agents over various periods of time; cited from earlier work
LNCaP tumors (CD44 null) [11] = test: Example 12: HA, M-DNA, MCC on LNCaP tumors in mice; type: in vivo, male nude BALB/c mice; settings: vs Group 1 (saline); intravenously day 0 and at 3-day intervals for 4 weeks; HA 0.16-16.0 mg/kg, M-DNA or MCC 0.02-2.0 mg/kg
Method: Effect of saline, HA, M-DNA, MCC, HA+M-DNA and HA +MCC on LNCaP tumors in mice LNCaP human prostate cancer cells (CD44 null) are implanted subcutaneously into 224 male nude BALB/c mice. The mice are divided into 28 groups of 8 mice (Table 12).
(§9) Saline, HA, M-DNA, MCC, HA+M-DNA and HA+MCC are administered intravenously on day 0 and at 3-day intervals for 4 weeks (10 injections) at which time the mice are sacrificed and tumor mass and number of metastases are determined.

[12] = tested on: B16F10 murine melanoma tumor; settings: HA 1 mg/ml over 7 days by Alzet osmotic pump into the immediate vicinity of the tumor; cited from earlier work
B16F1 tumors [13] = test: Example 13: HA, M-DNA, MCC on B16F1 tumors in mice; type: in vivo, female C57BL/6 mice; settings: vs Group 1 (saline); intratumorally day 0 and at 3 day intervals for 4 weeks; HA 0.16-16.0 mg/kg, M-DNA or MCC 0.02-2.0 mg/kg
Method: Example 13 Effect of saline, HA, M-DNA, MCC, HA+M-DNA and HA +MCC on B16F1 tumors in mice B16F I cancer cells are implanted […] into 224 female C57BL/6 mice. The mice are divided into 28 groups of 8 mice (Table 13).
Saline, HA, M-DNA, MCC, HA+M-DNA and HA+MCC are administered intratumorally in saline on day 0 and at 3 day intervals for 4 weeks (10 injections) at which time the mice are sacrificed and tumor mass and number of metastases are determined.

PC3 tumors [14] = test: Example 11: HA, M-DNA, MCC on PC3 tumors in mice; type: in vivo, male nude BALB/c mice; settings: vs Group 1 (saline); intravenously day 0 and at 3-day intervals for 4 weeks; HA 0.16-16.0 mg/kg, M-DNA or MCC 0.02-2.0 mg/kg
Method: PC-3 human prostate cancer cells are implanted subcutaneously into 224 male nude BALB/c mice. The mice are divided into 28 groups of 8 mice (Table 11).
as §9

[15] = target: CD44 cell surface HA receptor (human) (UniProt P16070); test: flow cytometry, FITC-CD44 on UMUC-3 human bladder cancer cells (unstained cells: 3)
UniProt P16070, sequence (P16070 21-742): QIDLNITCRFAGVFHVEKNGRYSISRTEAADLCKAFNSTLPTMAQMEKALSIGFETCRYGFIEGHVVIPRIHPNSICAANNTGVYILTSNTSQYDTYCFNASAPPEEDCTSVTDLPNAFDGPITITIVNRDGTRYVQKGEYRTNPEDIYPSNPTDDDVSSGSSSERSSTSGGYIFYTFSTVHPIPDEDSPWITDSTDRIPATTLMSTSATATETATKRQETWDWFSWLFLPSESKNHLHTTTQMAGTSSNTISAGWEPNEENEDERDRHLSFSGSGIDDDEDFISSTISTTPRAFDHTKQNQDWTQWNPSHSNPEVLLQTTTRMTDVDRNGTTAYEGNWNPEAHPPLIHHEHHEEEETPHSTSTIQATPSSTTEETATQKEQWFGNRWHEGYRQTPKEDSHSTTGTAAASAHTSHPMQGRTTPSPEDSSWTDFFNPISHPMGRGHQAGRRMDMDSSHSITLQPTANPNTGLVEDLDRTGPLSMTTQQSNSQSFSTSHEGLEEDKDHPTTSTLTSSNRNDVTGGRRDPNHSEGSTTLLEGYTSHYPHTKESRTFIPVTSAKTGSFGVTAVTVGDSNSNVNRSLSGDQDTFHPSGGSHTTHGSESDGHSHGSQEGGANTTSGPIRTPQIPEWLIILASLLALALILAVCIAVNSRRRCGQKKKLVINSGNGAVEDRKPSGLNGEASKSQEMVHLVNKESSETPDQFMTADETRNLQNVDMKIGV

[16] = target: CD44 cell surface HA receptor (human) (UniProt P16070); test: flow cytometry, FITC-CD44 on HT-1376 human bladder cancer cells (unstained cells: 4)
[17] = target: CD44 cell surface HA receptor (human) (UniProt P16070); test: flow cytometry, FITC-CD44 on T-24 human bladder cancer cells (unstained cells: 3)
[18] = target: CD44 cell surface HA receptor (human) (UniProt P16070); test: flow cytometry, FITC-CD44 on PC-3 human prostate cancer cells (unstained cells: 6)
[19] = target: CD44 cell surface HA receptor (human) (UniProt P16070); test: flow cytometry, FITC-CD44 on Du-145 human prostate cancer cells (unstained cells: 3)
[20] = target: CD44 cell surface HA receptor (human) (UniProt P16070); test: flow cytometry, FITC-CD44 on MCF-7 human breast cancer cells (unstained cells: 3)
[21] = target: CD44 cell surface HA receptor (human) (UniProt P16070); test: flow cytometry, FITC-CD44 on RT-4 human bladder cancer cells (unstained cells: 4)

Compound: O=c1[nH]cc(F)c(=O)[nH]1 [5-FU, 5-fluorouracil]
- number of metastases (PC3 tumors [1]): fewer metastases
- tumor mass (PC3 tumors [1]): less tumor mass
- number of metastases (B16F1 tumors [2]): fewer metastases
- tumor mass (B16F1 tumors [2]): less tumor mass
- inhibition at 1 µg/mL ([3]; Homo sapiens, 5-FU at 1.0 μg/ml alone (saline instead of HA)): 14%
- number of metastasis (LNCaP tumors (CD44 null) [4]): fewer metastases
- tumor mass (LNCaP tumors (CD44 null) [4]): less tumor mass
- inhibition at 10 µg/mL [5]: 18%

Compound: N.N.[Cl][Pt][Cl] [CIS, cisplatin]
- number of metastases (PC3 tumors [1]): fewer metastases
- tumor mass (PC3 tumors [1]): less tumor mass
- number of metastases (B16F1 tumors [2]): fewer metastases
- tumor mass (B16F1 tumors [2]): less tumor mass
- % INHIBITION of cell proliferation ([3]; CIS at 0.1 μg/ml alone (saline instead of HA)): 2%
- number of metastasis (LNCaP tumors (CD44 null) [4]): fewer metastases
- tumor mass (LNCaP tumors (CD44 null) [4]): less tumor mass

Compound: (G1T)13G: synthetic 27 base oligonucleotide (GTGTGTGTGTGTGTGTGTGTGTGTGTG; listed as DNA, chemistry not given here)
- % INHIBITION of cell proliferation [6]: 44%

Compound: GG(GT)1GG: synthetic 6 base oligonucleotide
- % INHIBITION of cell proliferation [6]: 20%

Compound: Hyaluronic acid [<1.5 × 10^4 Da HA]
- % INHIBITION of cell proliferation ([7]; HA 8.0 μg/ml): 24%
- % INHIBITION of cell proliferation [8]: 37%
- % INHIBITION of cell proliferation ([9]; HA 8.0 μg/ml): 5%

Compound: Hyaluronic acid [HA]
- growth of cancer cells (colon-26 cancer cells): significantly inhibits the growth
- number of metastases (PC3 tumors [1]): fewer metastases
- tumor mass (PC3 tumors [1]): less tumor mass
- number of metastases (B16F1 tumors [2]): fewer metastases
- tumor mass (B16F1 tumors [2]): less tumor mass
- effect on cancers [10]: reduced or eliminated
- % INHIBITION of cell proliferation ([7]; HA 80.0 μg/ml): 26%
- number of metastases (LNCaP tumors (CD44 null) [11]): fewer metastases
- tumor mass (LNCaP tumors (CD44 null) [11]): less tumor mass
- reduced tumor volume [12]: > 85%
- number of metastases (B16F1 tumors [13]): fewer metastases
- tumor mass (B16F1 tumors [13]): less tumor mass
- number of metastasis (LNCaP tumors (CD44 null) [4]): fewer metastases
- tumor mass (LNCaP tumors (CD44 null) [4]): less tumor mass
- number of metastases (PC3 tumors [14]): fewer metastases
- tumor mass (PC3 tumors [14]): less tumor mass
- % INHIBITION of cell proliferation ([9]; HA 80.0 μg/ml): 30%

- mean fluorescent units (mean fluorescent units) [15]: 1800
- mean fluorescent units (mean fluorescent units) [16]: 200
- mean fluorescent units (mean fluorescent units) [17]: 1800
- mean fluorescent units (mean fluorescent units) [18]: 400
- mean fluorescent units (mean fluorescent units) [19]: 450
- mean fluorescent units (mean fluorescent units) [20]: 70
- mean fluorescent units (mean fluorescent units) [21]: 60
Compound: fluorescent anti-HA receptor monoclonal antibody FITC-CD44 (clone G44-26 (C26), Pharmingen)
